The values below are quoted from earlier work in patent US20170224670A1, “Drug Combination to Treat Melanoma” (Exelixis, Inc., priority 2014, published 2017).

The test system of the data set is BRAF mutation-associated melanomas. The settings on record: from initial use, patients taking the drug.

In the case of `CCCS(=O)(=O)Nc1ccc(F)c(C(=O)c2c[nH]c3ncc(-c4ccc(Cl)cc4)cc23)c1F` [vemurafenib], the “Time to development of resistance, on average” value was no more than 7 months.
